Experimental data published in PMC11527162, “Mutational analysis of Phanerochaete chrysosporium´s purine transporter” (PLOS ONE, 2024).

Key:
PhZ [1] = target: T1, PhZ (Phanerodontia chrysosporium, UniProt A0A1B2TT73, L124M); assay: competition with [3H]-hypoxanthine uptake in germinating A. nidulans conidia; type: cell-based; details: 0.2 uM [3H]-hypoxanthine, 37 °C
T1 construct: full length, 578 amino acids, from cDNA; C-terminal GFP fusion kept; expressed at the azgA locus of Aspergillus nidulans deltaZAC (azgA, uapA, uapC deleted)

PhZ [2] = target: T2, PhZ (Phanerodontia chrysosporium, UniProt A0A1B2TT73, A418V); assay: as above; type: cell-based; details: 0.2 uM [3H]-hypoxanthine, 37 °C
T2 construct: full length, 578 amino acids, from cDNA; C-terminal GFP fusion kept; expressed at the azgA locus of Aspergillus nidulans deltaZAC (azgA, uapA, uapC deleted)

[3] = substrate: O=c1[nH]cnc2nc[nH]c12; assay: inhibition of [3H]-hypoxanthine uptake by unlabelled hypoxanthine in germinating A. nidulans conidia; type: cell-based, Phanerodontia chrysosporium; details: 0.2 uM [3H]-hypoxanthine, 37 °C, minimal medium with nitrate, Km/i taken as equal to IC50 of unlabelled hypoxanthine
[4] = substrate: O=c1[nH]cnc2nc[nH]c12; assay: as above; type: cell-based, Phanerodontia chrysosporium; details: 0.2 uM [3H]-hypoxanthine, 37 °C, minimal medium with nitrate, Km/i taken as equal to IC50 of unlabelled hypoxanthine; remark: listed apart in the source
Description: inhibition of [3H]-hypoxanthine uptake by unlabelled hypoxanthine in germinating A. nidulans conidia on PhZ | Dose-response curves for hypoxanthine are shown.

[5] = substrate: O=c1[nH]cnc2nc[nH]c12; assay: as above; type: cell-based, Phanerodontia chrysosporium; details: 0.2 uM [3H]-hypoxanthine, 37 °C, minimal medium with nitrate, Km/i taken as equal to IC50 of unlabelled hypoxanthine; remark: listed apart in the source
Description: inhibition of [3H]-hypoxanthine uptake by unlabelled hypoxanthine in germinating A. nidulans conidia on PhZ | (A) PhZwt; (B-E) L124M, S133T, T392A and A418V mutants respectively.

Molecule	% of initial uptake velocity with 1 mM competitor (PhZ [1])	% of initial uptake velocity with 1 mM competitor (PhZ [2])	Km [5]	further results
Nc1ncnc2[nH]cnc12 [adenine]	L124M and S133T, show less [^3H]-hypoxanthine inhibition regarding PhZwt with all purines	the T392A and A418V mutants exhibited higher levels of inhibition		
Nc1nc2[nH]cnc2c(=O)[nH]1 [guanine]	L124M and S133T, show less [^3H]-hypoxanthine inhibition regarding PhZwt with all purines	the T392A and A418V mutants exhibited higher levels of inhibition		
Nc1nc2[nH]nnc2c(=O)[nH]1 [8-azaguanine]	L124M and S133T, show less [^3H]-hypoxanthine inhibition regarding PhZwt with all purines	the T392A and A418V mutants exhibited higher levels of inhibition		
PhZ (Phanerodontia chrysosporium; L124M) (protein, full length, 578 amino acids, from cDNA; C-terminal GFP fusion kept; expressed at the azgA locus of Aspergillus nidulans deltaZAC (azgA, uapA, uapC deleted)) MPIALTHRINAFVADSPVGRWFHLEGSGHPKERVGSRFLTELRAGLTTWAAMAYIISVNASIISDTGGTCVCTQPDLCVNDETYLSCVADVRRDLITSTAAVSALASFLMGLLANLPVGMAPGMGLNAYFTYSVVGFHGSGIITYREALAAVFLEGWFFFFLSLLGLRQWLARIMPQSLVMAVGAGIGLFIAFIGLSGGGLGVIGGDTTNLVGLGGCLPQYYTSPDLPNYCASHVLQSPTMWLGIFVGGVFTVFLMLYRVKGAILIGIFLTSIISWPRPTSVTYFPHTDTGDQAFDFFKQVVTFRPLKRIGNALDYNYSNGRVWYALITFLYVDILDTTGTLYSMAKFAGLRDPVTLDFENSTIAYCVDAFSISMGALMGTSPVTAFIESATGISEGGKTGLTAITTGFAFFISVFFAPIFASIPSWATGGALVIVGSLMIRNVRDINWDYVGDSVPAFLTLIIIPLTYNIAYGVIAGIISFVLINGLAWALRKVSGERFAPPNYDASEPWVIPPGSIVPAWMRFIAGRTGLARDAARERPADADVLEMEQHAHDAASASSLGKHVPAVAEPVTEKDD				Km [3]: 1.6 ± 0.3 µM
PhZ (Phanerodontia chrysosporium) (protein, full length, 578 amino acids, from cDNA; C-terminal GFP fusion kept; expressed at the azgA locus of Aspergillus nidulans deltaZAC (azgA, uapA, uapC deleted)) MPIALTHRINAFVADSPVGRWFHLEGSGHPKERVGSRFLTELRAGLTTWAAMAYIISVNASIISDTGGTCVCTQPDLCVNDETYLSCVADVRRDLITSTAAVSALASFLMGLLANLPVGMAPGLGLNAYFTYSVVGFHGSGIITYREALAAVFLEGWFFFFLSLLGLRQWLARIMPQSLVMAVGAGIGLFIAFIGLSGGGLGVIGGDTTNLVGLGGCLPQYYTSPDLPNYCASHVLQSPTMWLGIFVGGVFTVFLMLYRVKGAILIGIFLTSIISWPRPTSVTYFPHTDTGDQAFDFFKQVVTFRPLKRIGNALDYNYSNGRVWYALITFLYVDILDTTGTLYSMAKFAGLRDPVTLDFENSTIAYCVDAFSISMGALMGTSPVTAFIESATGISEGGKTGLTAITTGFAFFISVFFAPIFASIPSWATGGALVIVGSLMIRNVRDINWDYVGDSVPAFLTLIIIPLTYNIAYGVIAGIISFVLINGLAWALRKVSGERFAPPNYDASEPWVIPPGSIVPAWMRFIAGRTGLARDAARERPADADVLEMEQHAHDAASASSLGKHVPAVAEPVTEKDD				Km [4]: 2.7 ± 0.2 µM
PhZ (Phanerodontia chrysosporium; S133T) (protein, full length, 578 amino acids, from cDNA; C-terminal GFP fusion kept; expressed at the azgA locus of Aspergillus nidulans deltaZAC (azgA, uapA, uapC deleted)) MPIALTHRINAFVADSPVGRWFHLEGSGHPKERVGSRFLTELRAGLTTWAAMAYIISVNASIISDTGGTCVCTQPDLCVNDETYLSCVADVRRDLITSTAAVSALASFLMGLLANLPVGMAPGLGLNAYFTYTVVGFHGSGIITYREALAAVFLEGWFFFFLSLLGLRQWLARIMPQSLVMAVGAGIGLFIAFIGLSGGGLGVIGGDTTNLVGLGGCLPQYYTSPDLPNYCASHVLQSPTMWLGIFVGGVFTVFLMLYRVKGAILIGIFLTSIISWPRPTSVTYFPHTDTGDQAFDFFKQVVTFRPLKRIGNALDYNYSNGRVWYALITFLYVDILDTTGTLYSMAKFAGLRDPVTLDFENSTIAYCVDAFSISMGALMGTSPVTAFIESATGISEGGKTGLTAITTGFAFFISVFFAPIFASIPSWATGGALVIVGSLMIRNVRDINWDYVGDSVPAFLTLIIIPLTYNIAYGVIAGIISFVLINGLAWALRKVSGERFAPPNYDASEPWVIPPGSIVPAWMRFIAGRTGLARDAARERPADADVLEMEQHAHDAASASSLGKHVPAVAEPVTEKDD			2.1 ± 0.4 µM	
PhZ (Phanerodontia chrysosporium; T392A) (protein, full length, 578 amino acids, from cDNA; C-terminal GFP fusion kept; expressed at the azgA locus of Aspergillus nidulans deltaZAC (azgA, uapA, uapC deleted)) MPIALTHRINAFVADSPVGRWFHLEGSGHPKERVGSRFLTELRAGLTTWAAMAYIISVNASIISDTGGTCVCTQPDLCVNDETYLSCVADVRRDLITSTAAVSALASFLMGLLANLPVGMAPGLGLNAYFTYSVVGFHGSGIITYREALAAVFLEGWFFFFLSLLGLRQWLARIMPQSLVMAVGAGIGLFIAFIGLSGGGLGVIGGDTTNLVGLGGCLPQYYTSPDLPNYCASHVLQSPTMWLGIFVGGVFTVFLMLYRVKGAILIGIFLTSIISWPRPTSVTYFPHTDTGDQAFDFFKQVVTFRPLKRIGNALDYNYSNGRVWYALITFLYVDILDTTGTLYSMAKFAGLRDPVTLDFENSTIAYCVDAFSISMGALMGTSPVTAFIESAAGISEGGKTGLTAITTGFAFFISVFFAPIFASIPSWATGGALVIVGSLMIRNVRDINWDYVGDSVPAFLTLIIIPLTYNIAYGVIAGIISFVLINGLAWALRKVSGERFAPPNYDASEPWVIPPGSIVPAWMRFIAGRTGLARDAARERPADADVLEMEQHAHDAASASSLGKHVPAVAEPVTEKDD			2.3 ± 0.3 µM	
PhZ (Phanerodontia chrysosporium; A418V) (protein, full length, 578 amino acids, from cDNA; C-terminal GFP fusion kept; expressed at the azgA locus of Aspergillus nidulans deltaZAC (azgA, uapA, uapC deleted)) MPIALTHRINAFVADSPVGRWFHLEGSGHPKERVGSRFLTELRAGLTTWAAMAYIISVNASIISDTGGTCVCTQPDLCVNDETYLSCVADVRRDLITSTAAVSALASFLMGLLANLPVGMAPGLGLNAYFTYSVVGFHGSGIITYREALAAVFLEGWFFFFLSLLGLRQWLARIMPQSLVMAVGAGIGLFIAFIGLSGGGLGVIGGDTTNLVGLGGCLPQYYTSPDLPNYCASHVLQSPTMWLGIFVGGVFTVFLMLYRVKGAILIGIFLTSIISWPRPTSVTYFPHTDTGDQAFDFFKQVVTFRPLKRIGNALDYNYSNGRVWYALITFLYVDILDTTGTLYSMAKFAGLRDPVTLDFENSTIAYCVDAFSISMGALMGTSPVTAFIESATGISEGGKTGLTAITTGFAFFISVFFVPIFASIPSWATGGALVIVGSLMIRNVRDINWDYVGDSVPAFLTLIIIPLTYNIAYGVIAGIISFVLINGLAWALRKVSGERFAPPNYDASEPWVIPPGSIVPAWMRFIAGRTGLARDAARERPADADVLEMEQHAHDAASASSLGKHVPAVAEPVTEKDD			2.8 ± 0.4 µM	
